Laboratory results published in patent US20070174926A1, “Sperm factor oscillogenin” (priority 2000, published 2007).
“Also recorded” adds a separate entry of the source. Marks after values point to notes of the source that are not given here.

Tests used:
[1] = system: IP3R-1; assay: Western blot quantification of IP3R-1 immunoreactivity in mouse eggs; type: cell-based; conditions: for IP3R-1 down-regulation (degradation): activation started 16 hr phCG, band intensity relative to MII eggs
Text: (§1) Several commonly used parthenogenetic agents were used during the course of these studies, including ethanol and ionomycin, which induce a single [Ca^2+]i rise (Cuthbertson, J. Exp. Zool. 226: 311-14 (1983); and Shiina et al., J. Reprod. Fert 97: 143-50 (1993)), and others such as adenophostin A, SF, thimerosal, and SrCl2 that evoke [Ca^2+]i oscillations (Kline et al., Dev. Biol. 149: 80-9 (1992); Swann, Biochem J. 287: 79-84 (1992); and Sato et al., Biol. Reprod. 58: 867-73 (1998)). The activating compounds were either injected into eggs (e.g., adenophostin A and SF, see microinjection procedures for details) or added to the eggs' culture media (e.g., thimerosal, SrCl2). Activation was started in all cases at 16 hr post hCG administration (phCG) and eggs evaluated visually 2 hr later by observing second polar body extrusion (18 hr phCG) and 5 hr post-treatment by evaluation of pronuclear formation. After the activation procedure and the assigned incubation period (1, 2, 4 or 8 hr), eggs were collected in 5 μl Dulbecco's phosphate buffered solution (DPBS)/polyvinylpyrrolidone (3 mg/ml, PVP) and stored at −80° C.
(§2) Ethanol activation was carried out by exposing eggs to a 7% ethanol solution in TL-Hepes plus 3 mg/ml bovine serum albumin (BSA) for 5 min at 37° C. After the treatment, eggs were washed several times in TL-Hepes, and cultured for 8 hr (24 hr-phCG). Activation with ionomycin and 6-dimethylaminopurine (DMAP), a kinase inhibitor (Susko-Parrish et al., Dev. Biol. 166: 729-39 (1994)) was accomplished by incubating eggs with 5 μM ionomycin for 5 min in Ca^2+ free-DPBS plus 3 mg/ml BSA. Eggs were then washed in TL-Hepes/1 mg/ml BSA, placed in DMAP/KSOM (2 mM) for 4 hr and cultured for 4 hr after carefuilly washing them free of DMAP. Eggs activated with SrCl2 were incubated for 2 or 4 hr in a Ca^2+-free M-16-like medium supplemented with 10 mM SrCl2. The treated eggs were then washed in TL-Hepes supplemented with 5% FCS and cultured for 2, 4 or 6 hr, depending on the experiment. For thimerosal activation, eggs were exposed to freshly made solutions of 200 μM thimerosal in KSOM for 30 min. Thimerosal-treated eggs were washed free of the reagent using TL-Hepes supplemented with 5% FCS and incubated for 30 min, 1.5, 3.5 or 7.5 hr.
Lactacystin (100 μM; Calbiochem, La Jolla, Calif.), a proteasome inhibitor (Mellgren, J. Biol. Chem. 272: 29899-903 (1997); and Fenteany et al., J. Biol. Chem. 273: 8545-48 (1998)), was used to determine if the proteasome was involved in down-regulation of the IP3R-1 by SF. Eggs were incubated in the inhibitor for 30 min. prior to injections, and injections of SF were carried out in the presence of the inhibitor. Eggs were then cultured in a new drop of KSOM freshly supplemented with lactacystin for 2 hr.
Equal volumes of crude lysates from 15 or 20 mouse eggs and double strength sample buffer (Laemmli, Nature 227: 680-5 (1970)) were combined as previously described (He et al., Biol. Reprod. 57: 1245-55 (1997)). Samples were boiled for 3 min and loaded into a 4% SDS-polyacrylamide gels. The separated proteins were transferred onto nitrocellulose membranes (Micron Separation; Westboro, Mass.) using a Mini Trans Blot Cell (Bio-Rad; Hercules, Calif.) for 2 hr at 4° C. The membranes were first washed in PBS and 0.05% Tween (PBS-T) and then blocked in 6% nonfat dry milk in PBS-T for 1 hr. […]

[2] = system: mouse eggs; assay: [Ca2+]i monitoring in fura-2 D loaded mouse eggs after agonist injection or exposure; type: cell-based; conditions: for Frequency of [Ca2+]i rises, in words: SF and adenophostin A compared with fertilization, p<0.05; for Amplitude of 1st rise / Amplitude of 3rd rise: [Ca2+]i; for Amplitude of 1st rise / Amplitude of 3rd rise / # of rises in 5 min / Duration of 1st rise / Duration of 3rd rise: mean ± SEM; for # of rises in 5 min: frequency during 5 min after return of first rise to baseline (Adenophostin A, SF) or after addition (SrCl2, thimerosal)
Description: Microinjection procedures were carried out as previously described (Wu et al., Dev. Biol. 203: 369-81 (1998)). Briefly, eggs were placed in a 50 μl microdrop of TL-Hepes supplemented with 2.5% sucrose and 20% FCS under paraffin oil and injected using manipulators (Narishige, Medical Systems Corp., Great Neck, N.Y.) mounted on a Nikon Diaphot microscope (Nikon, Inc., Garden City, N.Y.). Injection pipettes were loaded by suction from a 2-3 μl drop containing one of the following compounds: 0.5 mM fura-2 dextran (fura-2 D; […] K. Tanzawa, Sankyo Colo., Tokyo, Japan). All reagents were diluted in buffer containing 75 mM KCl and 20 mM HEPES, pH 7.0 and were delivered into the ooplasm by pneumatic pressure using a PLI-100 picoinjector (Medical Systems Corp.). […] Wu et al., 1998), and 100 nM for adenophostin A. […] Exp. Zool. 226: 311-14 (1983); and […] et al., J. Reprod. […] Swann, Biochem J. 287: 79-84 (1992); and Sato et al., Biol. Reprod. 58: 867-73 (1998)). […] Activation was started in all cases at 16 hr post hCG administration (phCG) and eggs evaluated visually 2 hr later by observing second polar body extrusion (18 hr phCG) and 5 hr post-treatment by evaluation of pronuclear formation. After the activation procedure and the assigned incubation period (1, 2, 4 or 8 hr), eggs were collected in 5 μl Dulbecco's phosphate buffered solution (DPBS)/polyvinylpyrrolidone (3 mg/ml, PVP) and stored at -80° C. […] Ethanol activation was carried out by exposing eggs to a 7% ethanol solution in TL-Hepes plus 3 mg/ml bovine serum albumin (BSA) for 5 min at 37° C. After the treatment, eggs were washed several times in TL-Hepes, and cultured for 8 hr (24 hr-phCG). […] Biol. 166: 729-39 (1994)) was accomplished by incubating eggs with 5 μM ionomycin for 5 min in Ca^2+ free-DPBS plus 3 mg/ml BSA. Eggs were then washed in TL-Hepes/1 mg/ml BSA, placed in DMAP/KSOM (2 mM) for 4 hr and cultured for 4 hr after carefuilly washing them free of DMAP. Eggs activated with SrCl2 were incubated for 2 or 4 hr in a Ca^2+-free M-16-like medium supplemented with 10 mM SrCl2. The treated eggs were then washed in TL-Hepes supplemented with 5% FCS and cultured for 2, 4 or 6 hr, depending on the experiment. […] Fluorescence Recordings and [Ca^2+]i Determinations Monitoring of [Ca^2+]i levels using fura-2 D loaded eggs was carried out as previously described (Wu et al., 1998). UV illumination was provided by a 75 watt xenon arc lamp, and 340 and 380 nm excitation wavelengths were utilized. The intensity of the UV light was attenuated 32-fold with neutral density filters, and a photomultiplier tube quantified the emitted light after passing through a 500 nm barrier filter. The fluorescence signal was averaged for the whole egg. A modified Phoscan 3.0 software program run on a 486 IBM-compatible system controlled the rotation of the filter wheel and shutter apparatus to alternate wavelengths. Free [Ca^2+]i was determined from the 340 nm/380 nm ratio of fluorescence. Rmin and Rmax were calculated using […] fura-2 D in Ca^2+-free DPBS supplemented with 2 mM EDTA (Rmin) or 2 mM CaCl2 (Rmax) and with 60% sucrose to correct for intracellular viscosity (Grynkiewicz et al., J. Biol. Chem. 260: 3440-50 (1985); and Poenie, Cell Calcium 11: 85-91 (1990)). The same solutions were also used alone for background subtractions. Ca^2+ measurements carried out in the presence of extracellular SrCl2 are presented as fluorescence ratios of the 340 nm/380 nm excitation wavelengths. Calculations of the [Ca^2+]i concentration was in this case not performed, since fura-2 has also some affinity for Sr^2+. The presence of intracellular Sr^2+ therefore interferes and prevents obtaining […] and/or Sr2+ intracellular concentrations (Hajnoczky et al., EMBO J., 16: 3533-43 (1997)). Eggs were measured individually in 35 μl drops of TL-Hepes medium placed on a glass coverslip on the bottom of a plastic culture dish under paraffin oil. […]

[3] = system: IP3R; conditions: full IP3R agonist; cited from earlier work
[4] = system: mouse eggs; assay: Parthenogenetic activation of mouse eggs (second polar body extrusion, pronuclear formation); type: cell-based; conditions: for Egg activation: result in words
Text: as §1
as §2, with “For thimerosal activation, eggs were exposed to freshly made solutions of 200 μM thimerosal in KSOM for 30 min. Thimerosal-treated eggs were washed free of the reagent using TL-Hepes supplemented with 5% FCS and incubated for 30 min, 1.5, 3.5 or 7.5 hr.” left out

Compound	IP3R-1 down-regulation (degradation) [1]	Frequency of [Ca2+]i rises, in words [2]	Amplitude of 1st rise [2]	Amplitude of 3rd rise [2]	# of rises in 5 min [2]	Duration of 1st rise [2]	Duration of 3rd rise [2]	Potency relative to IP3 [3]	Egg activation [4]	Effect on SF-induced degradation of IP3R-1 ([1]; 100 μM inhibitor, 30 min preincubation, 2 hr after SF injection)	Cell cycle progression assessed by extrusion of the polar body in SF-injected eggs ([4]; eggs pretreated and incubated with inhibitor, not shown)
Nc1ncnc2c1ncn2[C@@H]1O[C@H](CO)[C@@H](O[C@H]2O[C@H](CO)[C@@H](OP(=O)(O)O)[C@H](OP(=O)(O)O)[C@H]2O)[C@H]1OP(=O)(O)O [Adenophostin A, adenophostin A]	significant down-regulation; also recorded: near total down-regulation	higher frequency	620 ± 30^a, b nM	530 ± 100^a nM	3.9 ± 1.5^a*,*	260 ± 65^a sec	70 ± 22^a sec	approximately 100 fold	–	–	–
[Cl-].[Cl-].[Sr+2] [SrCl2]	failed to induce any changes	lower frequency	–	–	1 ± 0.0^b	740 ± 290^b sec	360 ± 70^b sec	–	high rates of egg activation	–	–
C[CH2][Hg][S]c1ccccc1C(=O)[O-].[Na+] [Thimerosal, thimerosal]	rapid and sustained down-regulation	low frequency	330 ± 30^b nM	640 ± 90^a nM	1 ± 0.4^b	180 ± 44^a sec	70 ± 16^a sec	–	–	–	–
CCO [ethanol]	does not induce down regulation of IP3R-1	–	–	–	–	–	–	–	high rates of activation	–	–
CC(=O)N[C@@H](CSC(=O)[C@]1([C@@H](O)C(C)C)NC(=O)[C@H](C)[C@@H]1O)C(=O)O [lactacystin]	–	–	–	–	–	–	–	–	–	markedly inhibited	clearly delayed
